Where “and” joins values, the source holds several entries; their conditions need not be identical. Identical values can stand only once.

One data set deals with T1, human Branched Chain Amino Acid Aminotransferase cytosolic form (hBCATc) (Homo sapiens, UniProt P54687).
T1 construct: made in house; host or cells: E. coli BL21(DE3)
T1 sequence (P54687 1-386): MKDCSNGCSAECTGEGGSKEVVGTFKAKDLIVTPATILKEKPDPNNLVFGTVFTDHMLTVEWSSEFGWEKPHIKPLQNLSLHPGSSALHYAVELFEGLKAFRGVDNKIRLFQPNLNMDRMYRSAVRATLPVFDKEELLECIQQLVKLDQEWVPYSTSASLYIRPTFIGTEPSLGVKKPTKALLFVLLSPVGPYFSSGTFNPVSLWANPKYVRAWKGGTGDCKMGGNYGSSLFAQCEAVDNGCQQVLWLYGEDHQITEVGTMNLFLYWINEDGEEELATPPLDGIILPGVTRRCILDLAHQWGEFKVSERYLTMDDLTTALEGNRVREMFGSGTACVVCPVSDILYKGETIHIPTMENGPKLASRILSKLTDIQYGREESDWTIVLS
The experiment in a line: In vitro coupled enzyme assay (glutamate dehydrogenase, NADH formation), human BCATc. The settings on record: recombinant human BCATc, 37° C., 25 mM phosphate buffer pH 7.8; several values in a cell = repeat determinations; read-out: RhBCATc. In kind it is biochemical. On the procedure:
In vitro enzyme assay—human Branched Chain Amino Acid Aminotransferase cytosolic form (hBCATc) and mitochondrial form (hBCATm) as well as rat BCAT cytosolic form were assayed at 37° C. in 25 mM phosphate buffer pH 7.8. In addition, 2 mM DTT and 12.5 mM […] were added to the assay mixture. A coupling enzyme assay was used to monitor the production of glutamate. The formation of NADH from NAD+ at […] was followed on a 96-well plate Molecular Devices plate reader.
The following components were used in this coupled assay: 4 mM ADP, 1 mM NAD+, 750 μM L-Leucine, 500 μM α-ketoglutarate, 10 μM pyridoxal phosphate, 1 unit glutamate dehydrogenase, and 1.25 μg of the appropriate BCAT enzyme. Inhibitions by compounds were assayed by adding various concentrations to this coupled assay procedure as a DMSO stock up to a 5% v/v DMSO/buffer ratio.
Enzyme Preparation—humanBCATc and ratBCATc were expressed in BL21(DE3) cells. A growing culture of cells was induced with 1 mM IPTG at room temperature overnight. These cells were harvested by centrifugation at 10,000 g for 20 minutes. The supernatant was discarded, and the cells were stored at −80° C. until needed. The protein was purified by the following method. The cell paste was resuspended in extraction buffer (0.1 M phosphate, pH 8.0, with 0.01 M Tris-HCL and 5 mM TCEP and then lysed on a French Press at 1000 psi. The lysate was centrifuged at 10,000 g for 15 minutes, and the pellet was discarded. The supernatant was loaded onto a Hitrap Chelating column previously charged with 0.1 M NiSO4 and washed with 3 to 4 column volumes of extraction buffer. The column was then washed with 0.01 Tris, pH 7.5, 10% glycerol, 150 mM NaCl, 5 mM TCEP for two column volumes. The column was then further washed with two column volumes of 0.1 M phosphate, pH 6.0, 0.01 M Tris, 10% glycerol and 750 mM NaCl. Finally, the column was washed with two column volumes of the same buffer plus 50 mM imidazole. The BCAT enzyme was then eluted with the same buffer but with 350 mM imidazole. The eluant was then dialyzed overnight against 10 mM phosphate buffer pH 8.0, 10% glycerol, and 5 mM TCEP. The dialyzed protein was then loaded onto a Q-sepharose column and eluted using a salt gradient. Active fractions were collected and further purified on a Superose-12 column to yield pure BCAT protein.
Regarding `O=C(NNS(=O)(=O)c1ccccc1)c1cccc2oc3ccccc3c12` [Example 12, 1-Dibenzofurancarboxylic acid 2-(phenylsulfonyl)hydrazide], the IC50 was 90.5 µM.
The same measure, in the same setting: the value for `O=C(NNS(=O)(=O)c1ccccc1)c1cccc2cccnc12` [Example 21, Quinoline-8-carboxylic acid 2-(phenylsulfonyl)hydrazide] was > 100 µM.
Turning to `COc1cccc2cc(C(=O)NNS(=O)(=O)c3ccccc3C(F)(F)F)oc12` [Example 54, 2-Benzofurancarboxylic acid, 7-methoxy-, 2-[[2-(trifluoromethyl)phenyl]-sulfonyl]hydrazide], the IC50 was determined as 3.76 µM.
On the same count and under the same terms, for `COc1cccc2cc(C(=O)NNS(=O)(=O)c3cccc(C)c3)oc12` [Example 55, 2-Benzofurancarboxylic acid, 7-methoxy-, 2-[(3-methylphenyl)sulfonyl]hydrazide] the value was 3.53 µM and 3.3 µM; for `COc1c(C(=O)NNS(=O)(=O)c2ccccc2)oc2ccc(Cl)cc12` [Example 78, 2-Benzofurancarboxylic acid, 5-chloro-3-methoxy, 2-(phenylsulfonyl)hydrazide], 3.7 µM; for `Cc1ccc(S(=O)(=O)NNC(=O)c2cnc3ccccc3c2)cc1` [Example 127, 3-Quinolinecarboxylic acid, 2-[(4-methylphenyl)sulfonyl]hydrazide], 16.8 µM.
On the same count and under the same terms, for `Cc1cccc(S(=O)(=O)NNC(=O)c2ccc3ncccc3c2)c1` [Example 128, 6-Quinolinecarboxylic acid, 2-[(3-methylphenyl)sulfonyl]hydrazide] the value was 12 µM.
Still for that read-out and setting: the value for `Cc1cccc(S(=O)(=O)NNC(=O)c2cnc3ccccc3c2)c1` [Example 129, 3-Quinolinecarboxylic acid, 2-[(3-methylphenyl)sulfonyl]hydrazide] was 13 µM; that for `O=C(NNS(=O)(=O)c1cccc(Cl)c1)c1ccc2ncccc2c1` [Example 130, 6-Quinolinecarboxylic acid, 2-[(3-chlorophenyl)sulfonyl]hydrazide] was 22 µM.
Turning to `O=C(NNS(=O)(=O)c1cccc(Cl)c1)c1cnc2ccccc2c1` [Example 131, 3-Quinolinecarboxylic acid, 2-[(3-chlorophenyl)sulfonyl]hydrazide], the IC50 was determined as 61 µM.
Still for that read-out and setting: the value for `O=C(NNS(=O)(=O)c1cccc(F)c1)c1ccc2ncccc2c1` [Example 132, 6-Quinolinecarboxylic acid, 2-[(3-fluorophenyl)sulfonyl]hydrazide] was 40 µM; that for `O=C(NNS(=O)(=O)c1cccc(F)c1)c1cnc2ccccc2c1` [Example 133, 3-Quinolinecarboxylic acid, 2-[(3-fluorophenyl)sulfonyl]hydrazide] was > 100 µM.
On the same count and under the same terms, for `O=C(NNS(=O)(=O)c1cc(Cl)cc(Cl)c1)c1ccc2ncccc2c1` [Example 138, 6-Quinolinecarboxylic acid, 2-[(3,5-dichlorophenyl)sulfonyl]hydrazide] the value was > 100 µM; for `O=C(NNS(=O)(=O)c1cc(Cl)cc(Cl)c1)c1cnc2ccccc2c1` [Example 139, 3-Quinolinecarboxylic acid, 2-[(3,5-dichlorophenyl)sulfonyl]hydrazide], 41 µM.
The same measure, in the same setting: the value for `O=C(NNS(=O)(=O)c1ccccc1)c1nccc2ccccc12` [Example 152, Isoquinoline-1-carboxylic acid 2-(phenylsulfonyl)hydrazide] was > 100 µM.

Test system in a further data set: not given
Test: not given
Details: not given
For `CN(C)c1ccc2[nH]c(C(=O)NNS(=O)(=O)c3ccccc3)cc2c1.Cl`, the melting point – broadly, the temperature of the solid-liquid transition – lay in the range of 251.6 to 252.7 °C.
The same measure, in the same setting: the value for `CN(C)c1ccccc1S(=O)(=O)NNC(=O)c1ccc2oc3ccccc3c2c1.Cl` was 103.2 to 103.9 °C; that for `CN(C)c1ccc2oc(C(=O)NNS(=O)(=O)c3ccccc3)cc2c1.Cl` was 218.3 to 218.9 °C.
`CN(C)c1ccc(S(=O)(=O)NNC(=O)c2ccc3oc4ccccc4c3c2)cc1.Cl`: the melting point was in the range of 187.6 to 188.8 °C.
Same read-out and setting: the value for `O=C(NNS(=O)(=O)c1ccccc1)c1ccc2c(c1)OCO2` (hydrate or solvate) [Example 10, Benzo[1,3]dioxole-5-carboxylic acid 2-(phenylsulfonyl)hydrazide] was 156 to 158 °C; that for `O=C(NNS(=O)(=O)c1ccccc1)c1ccc2ncccc2c1` (hydrate or solvate) [Example 13, Quinoline-6-carboxylic acid 2-(phenylsulfonyl)hydrazide] was 211 to 214 °C; that for `O=C(NNS(=O)(=O)c1ccccc1)c1cccc2cccnc12` (hydrate or solvate) [Example 21, Quinoline-8-carboxylic acid 2-(phenylsulfonyl)hydrazide] was 173 to 175 °C.
Same read-out and setting: for `O=C(NNS(=O)(=O)c1ccccc1)c1cc2cc([N+](=O)[O-])ccc2o1` (hydrate or solvate) [Example 34, 2-Benzofurancarboxylic acid, 5-nitro-, 2-(phenylsulfonyl)hydrazide] the value was 207.7 to 208.1 °C; for `COc1cccc2cc(C(=O)NNS(=O)(=O)c3ccccc3C(F)(F)F)oc12` (hydrate or solvate) [Example 54, 2-Benzofurancarboxylic acid, 7-methoxy-, 2-[[2-(trifluoromethyl)phenyl]-sulfonyl]hydrazide], 156.8 to 157.6 °C; for `COc1cccc2cc(C(=O)NNS(=O)(=O)c3cccc(C)c3)oc12` (hydrate or solvate) [Example 55, 2-Benzofurancarboxylic acid, 7-methoxy-, 2-[(3-methylphenyl)sulfonyl]hydrazide], 170.8 to 171.8 °C.
The same measure, in the same setting: the value for `COc1ccc2cc(C(=O)NNS(=O)(=O)c3ccccc3)oc2c1` (hydrate or solvate) [Example 56, 2-Benzofurancarboxylic acid, 6-methoxy-, 2-(phenylsulfonyl)hydrazide] was 224.9 to 225.8 °C.
As to `COc1ccc2oc(C(=O)NNS(=O)(=O)c3ccccc3)c(OC(C)C)c2c1` (hydrate or solvate) [Example 57, 2-Benzofurancarboxylic acid, 5-methoxy-3-(1-methylethoxy), 2-(phenylsulfonyl)-hydrazide], the melting point lay within 127 to 129 °C.
Consider `COc1cc(OC)c2cc(C(=O)NNS(=O)(=O)c3ccccc3)oc2c1` (hydrate or solvate) [Example 60, 2-Benzofurancarboxylic acid, 4,6-dimethoxy-, 2-(phenylsulfonyl)hydrazide], for which the melting point fell in the range of 230.6 to 231 °C.
Still for that read-out and setting: for `COc1c(C(=O)NNS(=O)(=O)c2ccccc2)oc2c(OC)cccc12` (hydrate or solvate) [Example 61, 2-Benzofurancarboxylic acid, 3,7-dimethoxy-, 2-(phenylsulfonyl)hydrazide] the value was 177.9 to 179.6 °C; for `COc1c(C(=O)NNS(=O)(=O)c2ccccc2C(F)(F)F)oc2c(OC)cccc12` (hydrate or solvate) [Example 62, 2-Benzofurancarboxylic acid, 3,7-dimethoxy-, 2-[(2-trifluoromethylphenyl)-sulfonyl]hydrazide], 190.6 to 192.3 °C; for `COc1c(C(=O)NNS(=O)(=O)c2ccc(F)cc2)oc2c(OC)cccc12` (hydrate or solvate) [Example 63, 2-Benzofurancarboxylic acid, 3,7-dimethoxy-, 2-[(4-fluorophenyl)sulfonyl]-hydrazide], 190.9 to 191.1 °C.
On the same count and under the same terms, the value for `COc1c(C(=O)NNS(=O)(=O)c2cccc(C)c2)oc2c(OC)cccc12` (hydrate or solvate) [Example 64, 2-Benzofurancarboxylic acid, 3,7-dimethoxy-, 2-[(3-methylphenyl)sulfonyl]-hydrazide] was 179.4 to 180.9 °C.

The values above are taken from US20050004167A1, “Branched chain amino acid-dependent aminotransferase inhibitors and their use in the treatment of neurodegenerative diseases” (WARNER-LAMBERT COMPANY LLC, priority 2001, published 2005).
